Measurements reported in paper PMC5602355, “Endogenous Isoquinoline Alkaloids Agonists of Acid-Sensing Ion Channel Type 3” (Frontiers in Molecular Neuroscience, 2017).

Assays:
human ASIC3 (hASIC3) [1] = target: T1, human ASIC3 (hASIC3) (Homo sapiens, UniProt Q9UHC3); experiment: Activation of hASIC3 channels expressed in Xenopus laevis oocytes, whole-cell two electrode voltage clamp; format: cell-based; settings: for Maximal activating effect reached, % of Imax: Imax predicted by logistic fit
T1 construct: expressed in transfected cells; host or cells: Xenopus laevis oocytes (injected)
T1 sequence (Q9UHC3 1-531): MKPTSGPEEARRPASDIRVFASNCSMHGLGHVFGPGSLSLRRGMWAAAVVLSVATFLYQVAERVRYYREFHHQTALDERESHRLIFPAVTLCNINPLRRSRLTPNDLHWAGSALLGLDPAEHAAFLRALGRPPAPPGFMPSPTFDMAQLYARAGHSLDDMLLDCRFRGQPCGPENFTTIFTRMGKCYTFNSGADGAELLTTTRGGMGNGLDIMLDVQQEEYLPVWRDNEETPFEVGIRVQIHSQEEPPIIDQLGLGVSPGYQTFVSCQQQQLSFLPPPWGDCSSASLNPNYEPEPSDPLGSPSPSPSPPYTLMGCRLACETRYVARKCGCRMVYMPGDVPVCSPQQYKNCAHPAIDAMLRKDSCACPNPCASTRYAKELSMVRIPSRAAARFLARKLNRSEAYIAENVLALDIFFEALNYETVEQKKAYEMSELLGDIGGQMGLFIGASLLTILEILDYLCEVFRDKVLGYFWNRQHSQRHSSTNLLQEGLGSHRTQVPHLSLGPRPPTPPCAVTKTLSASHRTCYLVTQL
From the text: (§1) The ability of EIAs to activate ASIC3 channels was studied in whole-cell configuration on oocytes of Xenopus laevis. THP and reticuline caused slowly activated sustained inward currents both in human (Figures 1A,B) and rat (Figures 1C,D) homomeric ASIC3 channels at resting pH 7.4 and above.
(§2) In the case of human ASIC3 channels (hASIC3), the activating effect was greater and even exceeded the response of the cell to pH drop of 7.8–5.5 in control experiments (Figure 1A). The maximal effect reached about 30% of Imax (a maximal amplitude predicted by the logistic equation fitting of dose-dependence of EIA-induced current). […] THP shown the same potency on the rASIC3 channel (rASIC3; Figure 1C). The activating effect under the same conditions reached about 30% of Imax.
(§3) Consequently, a maximal concentration of 1 mM was used in experimentations. The maximal effect on hASIC3 reached about 60% of Imax.
(§4) Oocytes expressed hASIC3 and rASIC3 homomeric channels were prepared as described (Dubinnyi et al., [2012]). After injection, the oocytes were kept for 2–3 days at 19°C and then up to 7 days at 15°C in an ND-96 medium containing (in mM): 96 NaCl, 2 KCl, 1.8 CaCl2, 1 MgCl2 and 10 HEPES titrated to pH 7.4 with NaOH supplemented with gentamycin (50 μg/ml). Two electrode voltage clamp recordings were made using a GeneClamp500 amplifier (Axon Instruments), and data were filtered at 20 Hz and digitized at 100 Hz by an AD converter L780 (L-Card, Moscow, Russia) using homemade software. A computer-controlled valve system for a fast solution switch was used. Microelectrodes were filled with 3 M KCl solutions. All solutions of the testing compounds were supplemented with 0.1% BSA. To induce currents, we employed ND-96-modified solutions in which 10 mM of HEPES was substituted for 5 mM MES pH 5.5. A set of external ND-96 solutions with pH 6.8–7.0 (buffered with 10 mM of MOPS), pH 7.1–8.0 (buffered with 10 mM of HEPES) was prepared.
The analysis of electrophysiological data was performed using the program OriginPro 8.6. The curve-fitting analysis was carried out with the following four-parameter logistic equation: F(x) = A/(1 + (x/x0)n), where x is the concentration of the ligand, F(x) is the response value at a given ligand concentration, A is the response value at maximal activation (% of control), x0 is the EC50 value and n is the Hill coefficient (slope factor). All data are presented as the mean ± SE.

[2] = Solubility in physiological solutions for electrophysiology; format: physicochemical; settings: in words; maximal concentration used 1 mM
Description: as §3

rat ASIC3 (rASIC3) [3] = target: T2, rat ASIC3 (rASIC3) (Rattus norvegicus, UniProt O35240); experiment: Activation of rASIC3 channels expressed in Xenopus laevis oocytes, whole-cell two electrode voltage clamp; format: cell-based
T2 construct: expressed in transfected cells; host or cells: Xenopus laevis oocytes (injected)
T2 sequence (O35240 1-533): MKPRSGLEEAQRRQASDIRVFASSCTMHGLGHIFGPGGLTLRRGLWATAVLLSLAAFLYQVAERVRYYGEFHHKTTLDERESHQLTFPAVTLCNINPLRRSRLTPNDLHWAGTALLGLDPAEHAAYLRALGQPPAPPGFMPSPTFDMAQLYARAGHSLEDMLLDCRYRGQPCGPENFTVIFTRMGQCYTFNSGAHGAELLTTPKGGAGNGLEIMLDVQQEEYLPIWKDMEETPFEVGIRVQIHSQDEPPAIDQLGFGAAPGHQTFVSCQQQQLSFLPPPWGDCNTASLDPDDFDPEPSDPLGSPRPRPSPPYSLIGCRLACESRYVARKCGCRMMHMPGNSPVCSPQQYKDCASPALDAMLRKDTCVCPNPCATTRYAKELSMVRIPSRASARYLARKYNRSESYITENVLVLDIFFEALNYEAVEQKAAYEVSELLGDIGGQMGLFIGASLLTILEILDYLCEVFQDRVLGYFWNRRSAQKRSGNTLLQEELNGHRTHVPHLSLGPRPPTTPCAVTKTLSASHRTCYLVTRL
From the text: as §1, §2, §4
(§5) The analysis of electrophysiological data was performed using the program OriginPro 8.6. […]

human ASIC3 (hASIC3) [4] = target: T1, human ASIC3 (hASIC3); experiment: Recovery of the transient current of hASIC3 from steady-state desensitization, oocytes; format: cell-based; settings: hASIC3, conditioning pH 7.3, pH 5.5 stimulus, n = 4-5
Description: EIAs cause both the channel activation and transient component of hASIC3 current restoration from a desensitization at pH 7.3 (Figures 2A,D). For THP, the restoration effect was more pronounced. This effect was dose-dependent and reached a maximal possible value at the highest applied concentration of THP (10 mM). […] For this reason, the maximal amplitude of the transient current recovered by THP from desensitization (Imax) was predicted by the fitting of the dose dependence by a logistic equation for each experimental cell.
as §4, with “To induce currents, we employed ND-96-modified solutions in which 10 mM of HEPES was substituted for 5 mM MES pH 5.5. A set of external ND-96 solutions with pH 6.8–7.0 (buffered with 10 mM of MOPS), pH 7.1–8.0 (buffered with 10 mM of HEPES) was prepared.” left out

rat ASIC3 (rASIC3) [5] = target: T2, rat ASIC3 (rASIC3); experiment: Recovery of the transient current of rASIC3 from steady-state desensitization, oocytes; format: cell-based; settings: rASIC3, conditioning pH 6.8, pH 5.5 stimulus, n = 4-5
Description: as §4, §5

[6] = hASIC3, holding pH 7.8, logistic fit, n = 5

SMILES | Hill coefficient (nH) of channel activation (human ASIC3 (hASIC3) [1]; [6]) | EC50 (human ASIC3 (hASIC3) [1]; hASIC3, holding pH 7.8, logistic fit, n = 5, read-out: EC50 of channel activation (EIA-induced sustained current)) | Maximal activating effect reached, % of Imax (human ASIC3 (hASIC3) [1]; hASIC3, maximal concentration 1 mM) | Solubility in physiological solutions for electrophysiology [2] | EC50 (human ASIC3 (hASIC3) [1]) | Maximal activating effect reached, % of Imax (human ASIC3 (hASIC3) [1]; hASIC3, pH 7.8, highest accessible concentration 10 mM) | Hill coefficient (nH) of channel activation (rat ASIC3 (rASIC3) [3]; rASIC3, holding pH 7.8, logistic fit, n = 5) | EC50 (rat ASIC3 (rASIC3) [3]; rASIC3, holding pH 7.8, logistic fit, n = 5, read-out: EC50 of channel activation (EIA-induced sustained current)) | Maximal activating effect reached, % of Imax (rat ASIC3 (rASIC3) [3]; rASIC3, pH 7.8, up to 10 mM, Imax predicted by logistic fit) | EC50 (human ASIC3 (hASIC3) [4]) | EC50 (rat ASIC3 (rASIC3) [5])
COc1ccc(CC2c3cc(O)c(OC)cc3CCN2C)cc1O (stereo not drawn) [Reticuline, reticuline] | 0.85 ± 0.05 | 0.56 ± 0.04 mM | about 60 % of Imax | does not have a high solubility | – | – | – | – | – | – | –
Oc1ccc(CC2NCCc3cc(O)c(O)cc32)cc1O (stereo not drawn) [THP, tetrahydropapaveroline] | 0.99 ± 0.05 | – | – | – | > 10 mM | about 30 % of Imax | 0.95 ± 0.04 | > 10 mM | about 30 % of Imax | 2.3 ± 0.04 mM | 4.6 ± 0.1 mM
